# Source: ChEMBL document CHEMBL1144874, “Exploring structure-activity relationships of transition state analogues of human purine nucleoside phosphorylase” (J Med Chem, 2003)
# Molecular target: T1, Purine nucleoside phosphorylase (Homo sapiens, UniProt P00491)
# T1 sequence (P00491 whole entry): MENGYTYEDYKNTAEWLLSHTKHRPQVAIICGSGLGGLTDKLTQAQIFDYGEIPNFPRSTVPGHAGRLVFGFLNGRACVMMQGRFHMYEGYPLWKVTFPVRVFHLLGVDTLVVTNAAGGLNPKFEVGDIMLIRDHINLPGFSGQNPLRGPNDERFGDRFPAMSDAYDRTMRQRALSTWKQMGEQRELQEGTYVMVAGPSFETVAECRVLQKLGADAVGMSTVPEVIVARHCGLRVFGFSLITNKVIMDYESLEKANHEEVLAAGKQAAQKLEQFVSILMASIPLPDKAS
# Description: Inhibition of human purine nucleoside phosphorylase; Initial rate.
row,SMILES,Ki [nM]
1,Cc1nc2c(O)[nH]cnc-2c1[C@@H]1N[C@H](CO)[C@H](O)C1O (stereo partly drawn),10.1
2,C[C@H]1N[C@@H](c2c[nH]c3c(=O)[nH]cnc23)C(O)[C@H]1O (stereo partly drawn),25
3,Nc1[nH]cnc2c(C[C@@H]3N[C@H](CO)[C@H](O)C3O)cnc1-2 (stereo partly drawn),> 30000
4,OC[C@H]1N[C@@H](c2n[nH]c3c(O)ncnc23)[C@H](O)[C@@H]1O,1.4
5,Nc1nc2c([C@@H]3N[C@H](CO)[C@@H](O)[C@H]3O)c[nH]c2c(=O)[nH]1,0.54
6,OC[C@H]1N[C@@H](c2c(F)[nH]c3c(O)ncnc23)C(O)[C@H]1O (stereo partly drawn),5.6
7,OC[C@H]1N[C@@H](Cc2c[nH]c3c(O)ncnc23)C(O)[C@H]1O (stereo partly drawn),250
8,Cn1cc([C@@H]2N[C@H](CO)[C@H](O)C2O)c2ncnc(O)c21 (stereo partly drawn),4.7
9,COc1[nH]cnc2c([C@@H]3N[C@H](CO)[C@H](O)C3O)cnc1-2 (stereo partly drawn),4.7

# More lines, now with the values ahead:
row,Ki [nM],SMILES
1,0.22,Nc1nc(O)c2[nH]cc([C@H]3C[C@@H](O)[C@@H](CO)N3)c2n1
2,0.25,OC[C@H]1N[C@@H](c2c[nH]c3c(O)ncnc23)C[C@H]1O
3,81,Oc1ncnc2c([C@@H]3N[C@H](CF)[C@H](O)C3O)c[nH]c12 (stereo partly drawn)
4,5.9,COC1[C@@H](O)[C@@H](CO)N[C@H]1c1c[nH]c2c(=O)[nH]cnc12 (stereo partly drawn)
5,9.5,OC[C@@H]1CC(O)[C@H](c2c[nH]c3c(O)ncnc23)N1 (stereo partly drawn)
6,1.4,OC[C@H]1N[C@@H](c2c[nH]c3c(O)ncnc23)C(F)(F)[C@H]1O
7,415,CCCN1[C@H](CO)[C@H](O)C(O)[C@@H]1c1c[nH]c2c(O)ncnc12 (stereo partly drawn)
8,2.84,OC[C@@H]1[C@H](O)C(O)CN1Cc1c[nH]c2c(O)ncnc12 (stereo partly drawn)
9,12700,OC[C@@H]1[C@H](O)C(O)CN1c1c[nH]c2c(O)ncnc12 (stereo partly drawn)
10,24.7,OC[C@H]1N[C@@H](c2c[nH]c3c(S)ncnc23)C(O)[C@H]1O (stereo partly drawn)

# Molecular target: T1, Purine nucleoside phosphorylase
# Remark: another data set of the same source
# Description: Equilibrium dissociation constant determined against human purine nucleoside phosphorylase (PNP) after slow-onset inhibition
row,SMILES,Ki [nM]
1,Oc1ncnc2c([C@@H]3N[C@H](CF)[C@H](O)C3O)c[nH]c12 (stereo partly drawn),7
2,OC[C@H]1N[C@@H](c2n[nH]c3c(O)ncnc23)[C@H](O)[C@@H]1O,0.18
3,Nc1nc2c([C@@H]3N[C@H](CO)[C@@H](O)[C@H]3O)c[nH]c2c(=O)[nH]1,0.042
4,OC[C@H]1N[C@@H](c2c(F)[nH]c3c(O)ncnc23)C(O)[C@H]1O (stereo partly drawn),0.39
